Data: patent US20170020900A1, “METHODS FOR SCREENING ANTIMICROBIAL AND ANTIVIRAL COMPOUNDS AND USES THEREOF” (The General Hospital Corporation, priority 2006, published 2017)
Values after ≈ are worked out from the molar mass of the structure shown. Residues, ends and D or L forms follow the SMILES beside them. *: point of attachment. CH2Cl = ClC*

What was measured:
C. albicans strain MLR62 = assay: C. elegans-Candida killing assay, compound library screen in 96-well plates; format: in vivo, Candida albicans; conditions: for Killing: glp-4, sek-1 nematodes, day 6, compound 33.33 μg/ml, 13.33 μg/ml, or 6.67 mM depending on library
Description: For testing the efficacy of chemical compounds, C. albicans strain MLR62 was inoculated into 2 ml of YPD and grown at 30° C. for 24 hours; 10 μl of the culture was spread on 35-mm tissue-culture plates (Falcon) containing brain heart infusion (BHI) agar (Difco) with kanamycin (45 μg/ml), ampicillin (100 μg/ml), and streptomycin (100 μg/ml). The plates were incubated at 30° C. for 24 hours. C. elegans animals at the L4 developmental stage (grown as detailed above under C. elegans liquid medium killing assays) were transferred from a lawn of E. coli HB101 onto C. albicans lawns on BHI medium, incubated at 25° C. for 30 minutes, and then pipetted in 50 μl into 96-well plate wells that contained 100 μl liquid media (79% of M9 buffer, 20% BHI media, 2 μM cholesterol and 90 μg/ml kanamycin). C. elegans glp-4; sek-1 nematodes were pipetted into 96-well plates that contained compounds from chemical libraries. Library 1361 was assembled by Biomol and contains well-characterized compounds that affect many different aspects of cellular pathways. The NINDS custom collection (plates 501-503) was put together by MicroSource Discovery Systems for the National Institute of Neurological Disorders and Stroke (NINDS), the Huntington's Disease Society of America (HDSA), the Amyotrophic Lateral Sclerosis (ALS) Association, and the Hereditary Disease Foundation (HDF). It mostly contains FDA approved drugs. The Prestwick library (plate 1569) contains compounds that are known to be safe and bioactive in humans. The majority of the compounds are marketed drugs.
On day 6, nematodes were evaluated for survival, filament formation and optical density. The plates were incubated at 25° C. and examined on day 6 for survival with a Nikon SMZ645 dissecting microscope. In addition, images were obtained using a CellWorx High Content Cell Analysis System (Applied Precision) at 4× magnification. Dead worms were counted but not removed. […] Each compound was also scored by the number of dead worms in the well that developed hyphea. […] Compounds were categorized as having a minimal effect on filament formation if 25-75% of the dead worms developed hyphea.
Approximately 25 nematodes were used to analyze each chemical compound tested. Two controls were used in all plates. […] In this pilot screen, we considered a compound as a “hit” when survival in the compound well with was 50% and above of the median survival of the control wells. Depending on the compound library, the final concentration of the compounds was 33.33 μg/ml, 13.33 μg/ml, or […].

[1] = test system: E. faecalis strain MMH594; assay: MIC, 2-fold broth microdilution in BHI media (NCCLS); format: cell-based, Enterococcus faecalis; conditions: Enterococcus faecalis, E30 value is at its aqueous solubility limit, read-out: MIC
Description: Worm survival was scored manually after 6 days of incubation. […] MICs were determined against E. faecalis strain MMH594 using 2-fold dilution in BHI media according to the broth microdilution protocol of the NCCLS (CLSI) (National Committee for Clinical Laboratory Standards, Approved Standard M7-A5; Methods for Dilution Antimicrobial Susceptibility Tests for Bacteria that Grow Aerobically, Villanova, Pa.: NCCLS (2000)).

E. faecalis [2] = assay: Bacterial colonization of the nematode intestine (CFU per worm); format: in vivo, Enterococcus faecalis; conditions: 100% = 3.28 × 10^4 CFU/worm
Description: Infected worms were washed three times with M9 buffer containing 1 mM sodium azide. Approximately 10 worms were transferred to a 2 ml microcentrifuge tube and the volume was brought to 250 μl. Fifty μl of buffer was removed and plated to determine the number of external CFU.

E. faecalis [3] = assay: Curing of a nematode E. faecalis infection on solid medium by antibiotic treatment; format: in vivo, Enterococcus faecalis; conditions: worms transferred to E. faecium lawns
Description: FIGS. 11A-11D show the curing of a nematode E. faecalis infection on solid medium by antibiotic treatment. FIG. 11A is a graph depicting the Kaplan-Meier survival curves of wild-type N2 C. elegans feeding continuously on lawns of E. faecalis (Efs) V583 (▴) or E. faecium (Efm) DO (▾). Nematodes feeding for 24 hours on E. faecalis and subsequently transferred to lawns of E. faecium (▪) die with an LT50 of 14.9 days. Error bars equal SEM. […] FIG. 11C is a graph showing the antibiotic concentrations required to promote rescue of E. faecalis infected N2 nematodes. […] Error bars are standard deviations. […] Error bars equal SEM.
N2 or glp-4(bn2ts); sek-1(km4) worms were synchronized by isolating eggs from gravid adults, hatching the eggs overnight in M9 buffer, and plating L1-stage worms onto lawns of E. coli on NGM agar media. Worms were grown to sterile, young adults by incubation at 25° C. for 48 to 52 hours, washed off the plates with M9 buffer, resuspended and washed in M9 buffer, deposited onto lawns of E. faecalis grown on BHI agar plates containing kanamycin at 80 μg/ml to inhibit E. coli growth, incubated for 8 to 12 hours at 25° C., and resuspended in M9 buffer. For assays using agar media, approximately 35 infected worms were washed and then deposited onto 35 mm plates containing the appropriate antibiotics. Plates were incubated at 25° C. and scored for worm survival at regular intervals. Worms were considered dead if they were unresponsive to touch with a platinum wire pick. For the initial assays using liquid media, approximately 80 infected worms were transferred to wells of a 6 well plate containing 2 ml media consisting of 10% BHI 80 μg/ml kanamycin, 90% M9 buffer, and the appropriate antibiotics. The plates were incubated without agitation at 25° C. and 80-85% relative humidity.

Molecule | Killing (C. albicans strain MLR62) | also measured
CCCCC[C@H](O)/C=C/C=C\C=C\C=C\[C@@H](O)[C@@H](O)CCCC(=O)O [Lipoxin A4] | 0.273 | 
C[C@H](N)C(=O)N[C@@H](C)C(=O)N[C@@H](Cc1ccccc1)C(=O)CCl [ALA-ALA-PHE-CMK] (H-Ala-Ala-Phe-CH2Cl) | 0.448 | 
O=c1[nH]c2ccc(/N=C/c3cc(I)cc(I)c3O)cc2[nH]1 [Compound H1] |  | MIC [1]: 15.6 µg/mL (≈ 30.9 µM); Amt. Colonization vs untreated (E. faecalis [2]): 1%
CC/C=C\C/C=C\C/C=C\C/C=C\C/C=C\CCCC(=O)O [Eicosapentaenoic acid (20:5 n-3)] | 0.448 | 
CC(=O)N[C@@H](CSC/C=C(\C)CC/C=C(\C)CCC=C(C)C)C(=O)O [Acetyl (N) s farnesyl 1 cys] | 0.4 | 
CCCCCCCCCCCCCCC[C@H](O)[C@@H](N)CO (racemic) [DL-Dihydrosphingosine] | 0.485 | 
CC(Oc1cccc(Cl)c1)C(=O)N/N=C/c1cc([N+](=O)[O-])ccc1O (stereo not shown) [Compound N1] |  | MIC [1]: 3.9 µg/mL (≈ 10.7 µM); Amt. Colonization vs untreated (E. faecalis [2]): 5%
Ikarugamycin | 0.429 | 
Hydroxytacrine maleate | 0.467 | 
C[N+]1(CCCCC[N+]2(C)CCCC2)CCCC1.O=C([O-])C(O)C(O)C(=O)O.O=C([O-])C(O)C(O)C(=O)O [Pentolinium bitartrate] | 0.227 | 
CO/C1=C\C(C)=C\[C@@H](C)[C@@H](O)[C@@H](C)C/C(C)=C/C=C/[C@H](OC)[C@@H]([C@@H](C)[C@@H](O)[C@H](C)[C@@]2(O)C[C@@H](O)[C@H](C)[C@@H](C(C)C)O2)OC1=O [Bafilomycin A1] | 0.333 | 
COC(=O)c1c(C)[nH]c(C)c1C(=O)c1ccccc1Cc1ccccc1 [FPL-64176] | 0.429 | 
Hydrocortisone hemisuccinate | 0.300 | 
CC1(C)C(C=C(Cl)Cl)C1C(=O)NCCCOC(=O)Nc1ccc(Cl)cc1 (stereo not shown) [Compound M1] |  | MIC [1]: > 125 µg/mL; Amt. Colonization vs untreated (E. faecalis [2]): 8%
O=C(NC(NC(=S)Nc1ccc([N+](=O)[O-])cc1)C(Cl)(Cl)Cl)c1cccc([N+](=O)[O-])c1 (stereo not shown) [Compound E1] |  | MIC [1]: 31.3 µg/mL (≈ 63.5 µM); Amt. Colonization vs untreated (E. faecalis [2]): 1%
N#C/C(=C/c1ccc(O)c(O)c1)C(=O)NCc1ccccc1 [AG-490] | 0.462 | 
CCCCCCCCCCC/C=C\C(C)(C)/C=C\CCCC(=O)O [7,7-Dimethyleicosadienoic acid] | 0.304 | 
CCCCC/C=C\C/C=C\C/C=C\C=C\[C@H](CCCC(=O)O)OO [5 (S) HPETE] | 0.261 | 
c1ccc(-c2ccc(CN3CCN(c4ccccn4)CC3)cc2)cc1 [Compound L1] |  | MIC [1]: > 125 µg/mL; Amt. Colonization vs untreated (E. faecalis [2]): 101%

Molecule | Killing (C. albicans strain MLR62) | also measured
O=C1c2ccccc2-c2ncnc3ccc(NC4CCCCC4)c1c23 [Compound J1] |  | MIC [1]: 2 µg/mL (≈ 6.07 µM); Amt. Colonization vs untreated (E. faecalis [2]): 11%
C=C1[C@@H](C)[C@H]2[C@H](Cc3ccccc3)NC(=O)[C@]23OC(=O)/C=C/[C@H](O)CCC[C@@H](C)C/C=C/[C@H]3[C@@H]1O [Cytochalasin B] | 0.438 | 
N#Cc1cc2c(OCC(O)CN3CCN(C(c4ccccc4)c4ccccc4)CC3)cccc2[nH]1 (stereo not shown) [SDZ-201106] | 0.432 | 
COc1ccc(/C=C/C2=CCN(Cc3ccccc3)CC2)cc1 [Compound K1] |  | MIC [1]: > 125 µg/mL; Amt. Colonization vs untreated (E. faecalis [2]): 61%
O=C(CCN1C(=O)/C(=C2/SC(=S)N(CCC(=O)Nc3ccccc3C(=O)O)C2=O)SC1=S)Nc1ccccc1C(=O)O [Compound F1] |  | MIC [1]: > 125 µg/mL; Amt. Colonization vs untreated (E. faecalis [2]): 3%
O=[N+]([O-])c1cc(O)ccc1/C=N/Nc1nc(NCc2ccccc2)nc(N2CCOCC2)n1 [Compound O1] |  | MIC [1]: 15.6 µg/mL (≈ 34.6 µM); Amt. Colonization vs untreated (E. faecalis [2]): 8%
Docosatrienoic acid (22:3 n-3) | 0.439 | 
CCCCC(C)(O)C/C=C/[C@H]1[C@H](O)CC(=O)[C@@H]1CCCCCCC(=O)O (mixture of isomers) [Misoprostol, free acid] | 0.464 | 
CN(C)[C@@H]1C(O)=C(C(N)=O)C(=O)[C@@]2(O)C(O)=C3C(=O)c4c(O)cccc4[C@@](C)(O)[C@H]3C[C@@H]12 [Tetracycline] |  | survival of E. faecalis infected N2 C. elegans, p (Kaplan-Meier) (E. faecalis [3]; tetracycline 0.08 μg/ml): 0.56; survival of E. faecalis infected N2 C. elegans, p (Kaplan-Meier) (E. faecalis [3]; tetracycline 0.4 μg/ml): < 0.06; survival of E. faecalis infected N2 C. elegans, p (Kaplan-Meier) (E. faecalis [3]; tetracycline 2 μg/ml): < 0.0014; survival of E. faecalis infected N2 C. elegans, p (Kaplan-Meier) (E. faecalis [3]; tetracycline 10 μg/ml): < 0.0001
N#CC(=Cc1ccc2[nH]ccc2c1)C(N)=C(C#N)C#N [AG-370] | 0.111 | 
COc1cc2ncnc(Nc3cccc(Cl)c3)c2cc1OC [AG-1478] | 0.3 | 
CC(=O)[C@H]1CC[C@H]2[C@@H]3CC=C4C[C@@H](OS(=O)(=O)[O-])CC[C@]4(C)[C@H]3CC[C@]12C.[Na+] [Pregnenolone sulfate, sodium salt] | 0.438 | 
CCCCC[C@@H](/C=C/C=C\C/C=C\C/C=C\CCCC(=O)O)OO [15 (S) HPETE] | 0.412 | 
Cc1n[nH]c(=O)[nH]c1=O [Azathymine, 6] | 0.480 | 
Clc1ccc2ncnc(NCc3ccc4c(c3)OCO4)c2c1 [MBCQ] | 0.32 | 
O=C(/C=C/c1ccc(O)c(O)c1)OCCc1ccccc1 [Caffeic acid phenethyl ester] |  | fluorescence within the nematode intestine (GFP-expressing C. albicans) (C. albicans strain MLR62; FIG. 18A): no fluorescence within the intestine
Eicosatrienoic acid (20:3 n-3) | 0.333 | 
CCCCC/C=C\C[C@@H](O)/C=C/C=C/C=C\[C@@H](O)CCCC(=O)O [Leukotriene B4] | 0.483 | 
